Source: ChEMBL document CHEMBL5727833, “MALT1 inhibitors and uses thereof” (2020)

molecular target: T1, Mucosa-associated lymphoid tissue lymphoma translocation protein 1 (Homo sapiens, UniProt Q9UDY8); experiment: Biological Assay: For exemplary compounds of the disclosure, Ki for inhibition of MALT1 was measured (Table E11). A concentration of 100 nM MALT1 was used for the assay.
T1 sequence (Q9UDY8 whole entry): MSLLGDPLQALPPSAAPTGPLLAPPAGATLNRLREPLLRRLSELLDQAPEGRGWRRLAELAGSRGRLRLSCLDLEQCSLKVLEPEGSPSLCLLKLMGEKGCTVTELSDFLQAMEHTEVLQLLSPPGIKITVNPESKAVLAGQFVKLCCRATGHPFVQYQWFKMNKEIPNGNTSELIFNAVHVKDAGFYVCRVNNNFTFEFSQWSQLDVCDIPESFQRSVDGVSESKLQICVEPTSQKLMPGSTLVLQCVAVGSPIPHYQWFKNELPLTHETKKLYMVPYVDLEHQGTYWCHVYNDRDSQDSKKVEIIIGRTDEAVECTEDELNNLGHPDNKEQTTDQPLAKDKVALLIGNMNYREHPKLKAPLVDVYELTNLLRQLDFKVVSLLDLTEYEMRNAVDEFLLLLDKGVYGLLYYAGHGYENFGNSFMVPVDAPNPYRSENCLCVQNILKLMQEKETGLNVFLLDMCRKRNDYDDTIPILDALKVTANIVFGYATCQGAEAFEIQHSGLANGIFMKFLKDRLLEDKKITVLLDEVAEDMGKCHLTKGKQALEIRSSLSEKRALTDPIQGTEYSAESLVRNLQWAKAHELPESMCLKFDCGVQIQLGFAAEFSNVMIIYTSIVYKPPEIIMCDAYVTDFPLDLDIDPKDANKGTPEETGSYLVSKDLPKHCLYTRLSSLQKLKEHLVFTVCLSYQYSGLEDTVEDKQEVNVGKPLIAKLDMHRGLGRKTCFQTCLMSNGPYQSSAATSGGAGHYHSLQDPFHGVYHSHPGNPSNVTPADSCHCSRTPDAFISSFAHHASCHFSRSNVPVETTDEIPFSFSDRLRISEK

| Ki [nM] | SMILES |
| --- | --- |
| 52 | Cc1nc(C(=O)N[C@H](C(=O)N2CCC[C@H]2C(=O)N[C@@H](CCCNC(=N)N)C(=O)CF)C(C)C)cs1 |
| 22 | CC(C)c1ccc(C(=O)N[C@H](C(=O)N2CCC[C@H]2C(=O)N[C@@H](CCCNC(=N)N)C(=O)CF)C(C)C)cc1 |
| 13 | CC(C)[C@H](NC(=O)c1ccc(Br)c(C#N)c1)C(=O)N1CCC[C@H]1C(=O)N[C@@H](CCCNC(=N)N)C(=O)CF |
| 66 | CC(C)[C@H](NS(=O)(=O)c1ccc(Br)cc1)C(=O)N1CCC[C@H]1C(=O)N[C@@H](CCCNC(=N)N)C(=O)CF |
| > 1000 | N=C(N)NCCC[C@H](NC(=O)[C@@H]1CCCN1C(=O)[C@H](Cc1cccnc1)NC(=O)c1ccc(Br)cc1)C(=O)CF |
| 78 | CC(C)[C@H](NC(=O)c1ccc(Br)c(F)c1)C(=O)N1CCC[C@H]1C(=O)N[C@@H](CCCNC(=N)N)C(=O)CF |
| 34 | N=C(N)NCCC[C@H](NC(=O)[C@@H]1C[C@@H](O)CN1C(=O)[C@@H](NC(=O)c1ccc(Br)cc1)C1CCCCC1)C(=O)CF |
| 24 | CC(C)[C@H](NC(=O)Nc1ccccc1Cl)C(=O)N1CCC[C@H]1C(=O)N[C@@H](CCCNC(=N)N)C(=O)CF |
